This note sets out measurements from PubChem BioAssay (NCI).

Structures are written as SMILES.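 Test compounds were applied to cells in 96-well plates for 48 hours at 5 doses. TGI: total growth inhibition.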

Test systems include MDA-MB-231 breast; DLD-1 colon; M19-MEL melanoma; LXFL 529 NSCLC; XF 498 CNS; RXF-631 renal; SNB-78 CNS; HOP-18 NSCLC; KM20L2 colon; DMS 273 small cell lung; DMS 114 small cell lung; P388/ADR leukemia; P388 leukemia; SN12K1 renal.
Common to all, as to assay: NCI tumour cell line growth inhibition, 48 h

With `c1ccc2c(CSCc3cccc4ccccc34)cccc2c1`, the TGI with MDA-MB-231 breast is more than 100 µM.

For `CC(C)(C)[Si](OC1CCOC1=O)(c1ccccc1)c1ccccc1` (stereo not given), the TGI in the test with DLD-1 colon is more than 100 µM; with M19-MEL melanoma, 39.1 µM; in the test with LXFL 529 NSCLC, more than 100 µM; in the test with XF 498 CNS it was 24.2 µM; in the test on RXF-631 renal, 98.8 µM; with SNB-78 CNS, more than 100 µM. The TGI in the test with HOP-18 NSCLC was 80.9 µM; in the test with KM20L2 colon it was 35.6 µM.

On to `COc1cc(C(=O)NC2CCc3cc(OC)c(OC)c(OC)c3-c3ccc(OC)c(=O)cc32)cc(OC)c1OC` (stereo not given), for which the TGI with DMS 273 small cell lung was more than 100 µM; with DLD-1 colon it was more than 100 µM; with M19-MEL melanoma, more than 100 µM; in the test with MDA-MB-231 breast, more than 100 µM; in the test with LXFL 529 NSCLC it was 44.2 µM; in the test on XF 498 CNS it was 16 µM. For the same compound, the TGI in the test on SNB-78 CNS was more than 100 µM; with HOP-18 NSCLC it was more than 100 µM; with KM20L2 colon, 0.326 µM; with DMS 114 small cell lung, 0.1 µM.

As for `C[n+]1cccc(NC(=O)c2ccc(NC(=O)C34CCC(C(=O)Nc5ccc(C(=O)Nc6ccc[n+](C)c6)cc5)(CC3)CC4)cc2)c1`, the TGI in the test on DMS 273 small cell lung is 25.9 µM; in the test with DLD-1 colon, more than 100 µM; in the test on M19-MEL melanoma, more than 100 µM; in the test on LXFL 529 NSCLC it was more than 100 µM; in the test with SNB-78 CNS, more than 100 µM; in the test on HOP-18 NSCLC it was more than 100 µM. Also, the TGI in the test on KM20L2 colon and with DMS 114 small cell lung was more than 100 µM each time.

`CCOc1cc(C2CC(c3ccc(NS(=O)(=O)c4cc([N+](=O)[O-])ccc4C)cc3)=NN2S(=O)(=O)c2cc([N+](=O)[O-])ccc2C)ccc1O` (stereo not given) gave a TGI in the test on MDA-MB-231 breast of more than 100 µM.

Consider `O=C(CSCC(=O)N/N=C/c1ccc2c(c1)OCO2)N/N=C/c1ccc2c(c1)OCO2`, for which the TGI in the test with MDA-MB-231 breast was more than 100 µM.

Compound `CC1=NN(c2cccc(Cl)c2)C2(SCC(=O)N2c2nc3ccccc3s2)C1=CC=Cc1ccccc1` (stereo not given) came in with a TGI in the test on MDA-MB-231 breast of 72 µM.

As for `CC(=O)Oc1ccccc1`, the TGI in the test on DMS 273 small cell lung, in the test with DLD-1 colon, in the test with M19-MEL melanoma, in the test on LXFL 529 NSCLC, in the test with RXF-631 renal and in the test on KM20L2 colon was more than 100 µM each time. The compound further yielded a TGI with DMS 114 small cell lung of more than 100 µM.

As for `CCCCN1C(=O)C2Cc3c([nH]c4ccccc34)C(c3cccc(O)c3)N2C1=O` (stereo not given), the TGI in the test with MDA-MB-231 breast was determined as 31.2 µM.

For the compound `Cc1ccc([N+](=O)[O-])cc1S(=O)(=O)Nc1ccc(C2=NN(S(=O)(=O)c3cc([N+](=O)[O-])ccc3C)C(c3ccccc3)C2)cc1` (stereo not given), the TGI in the test on MDA-MB-231 breast was 90.9 µM.

In the test on MDA-MB-231 breast, `O=C(C=P(c1ccccc1)(c1ccccc1)c1ccccc1)c1ccc(-c2cccs2)cc1` registered a TGI of 25.5 µM.

Turning to `C[C@H]1C[C@@H]2[C@H]([C@@H](O)C[C@@]3(C)[C@H]2CC[C@]3(O)C(=O)CO)[C@@]2(C)C=CC(=O)C=C12`, the TGI in the test on DMS 273 small cell lung, in the test with DLD-1 colon, with M19-MEL melanoma, with HOP-18 NSCLC, in the test on KM20L2 colon and in the test on DMS 114 small cell lung was more than 100 µM each time.

In the case of `Cc1ccc(O)c(Cc2nc3ccccc3nc2-c2cccc(Cl)c2)c1`, in the test with MDA-MB-231 breast, the TGI is more than 100 µM.

Take `CNC(=O)OCc1nc(SC)n(C)c1CO`: the TGI with DMS 273 small cell lung, in the test on DLD-1 colon, with P388/ADR leukemia, in the test on M19-MEL melanoma, in the test on XF 498 CNS and in the test on P388 leukemia was more than 100 µM in each case. In addition, the TGI in the test with SNB-78 CNS, with SN12K1 renal, in the test on HOP-18 NSCLC, with KM20L2 colon and with DMS 114 small cell lung was more than 100 µM in each case.

In turn, `CCCCc1ccc(N=C(N)N)cc1` gave a TGI in the test with MDA-MB-231 breast of more than 100 µM.

As for `COc1cc2c(c(OC)c1OC)-c1ccc(OC)c(=O)cc1C(NC(=O)COc1ccccc1)CC2` (stereo not given), the TGI was more than 100 µM in the test with DMS 273 small cell lung; more than 100 µM in the test on DLD-1 colon; more than 100 µM in the test with M19-MEL melanoma; 1.22 µM with MDA-MB-231 breast; more than 100 µM with LXFL 529 NSCLC; 65.8 µM with XF 498 CNS. For the same compound, the TGI in the test with RXF-631 renal was more than 100 µM; with SNB-78 CNS, more than 100 µM; in the test with HOP-18 NSCLC it was more than 100 µM; in the test with KM20L2 colon, less than 0.01 µM; in the test with DMS 114 small cell lung it was less than 0.01 µM.

For `C[C@@H]1C[C@H]2[C@@H]3CCC4=CC(=O)C=C[C@]4(C)[C@@]3(F)[C@@H](O)C[C@]2(C)[C@@]1(O)C(=O)CO`, the TGI with DLD-1 colon, in the test on M19-MEL melanoma, in the test on LXFL 529 NSCLC, in the test with KM20L2 colon and in the test on DMS 114 small cell lung was more than 100 µM each time.
